Laboratory results: US11147792B2, “Inhibitors of microbially induced amyloid” (Axial Therapeutics, Inc, priority 2017, dated 2021)
Entries after “also recorded” stand apart in the source; their conditions may differ. Like-named read-outs stand apart in the source and are kept apart here.

Assays:
[1] = molecular target: T1, human α-synuclein (Homo sapiens, UniProt P37840); experiment: In vitro Thioflavin T assay of α-synuclein aggregation; assay type: biochemical; details: compounds at 50 μM, 50 μM α-synuclein, ThT fluorescence at 40 hours
T1 construct: made in house; host or cells: E. coli
Procedure: In Vitro Thioflavin T Assay to Determine the Effects of Compounds on α-Synuclein Aggregation.
The ammonium sulfate pellet was washed with an equal volume of 100 mM ammonium acetate in ethanol, pelleted via centrifugation, washed twice with ethanol, dried overnight, resuspended in 10 mM Tris pH 7.4, and passed through a 50 kDa cut-off column. The assay was conducted in 96-well black microplates with a single 2 mm bead in each well, 40 μM ThioflavinT, 1% DMSO, 50 μM α-synuclein, 100 mM sodium chloride, 9.3 mM potassium phosphate pH 7.3, 4.6 mM Tris pH 7.4 (added as the solvent for α-synuclein or independently for controls lacking α-synuclein), and compounds at 1 μM or 50 μM. […] Readings were performed hourly for up to 73 hours. The effect of compounds on α-synuclein aggregation in the assay was determined with data from 40 hours, following the plateau of the fluorescent signal in the untreated (no compound) control wells containing α-synuclein. Fluorescence values for each compound with α-synuclein were first adjusted by subtracting the average fluorescence of the compound in the absence of α-synuclein.

[2] = tested on: Thy1-αSyn mice (ASO) mono-colonized with WT E. coli; experiment: Motor function of germ-free Thy1-αSyn (ASO) mice mono-colonized with WT E. coli, EGCG in drinking water; assay type: in vivo, mouse; details: EGCG ad lib in drinking water vs vehicle
Procedure: Evidence has linked unregulated α-synuclein expression in humans to a higher risk of PD, providing an epidemiological foundation for the Thy1-α-synuclein mouse model. Defects in coordinated motor tasks become evident at 12 weeks of age. Motor function is measured via four tests: beam traversal, pole descent, nasal adhesive removal, and hind limb clasping reflexes, as previously validated in this model (described in Fleming et al., J. Neurosci. 24, 9434-9440 (2004), and Sampson et al., Cell 167(6):1469-1480 (2016) the content of which are hereby expressly incorporated by reference in its entirety). […] Removal of an adhesive from the nasal bridge, a test of fine motor control, is also impaired in SPF-ASO mice compared to SPF-WT mice, as is the hind limb clasping reflex, a measure of striatal dysfunction.
(§1) Germ-free Thy1-αSyn mice (ASO) mono-colonized with WT E. coli at 5-6 weeks of age, and given water alone (Vehicle: Veh) or treated with EGCG ad lib in drinking water (+EGCG). RNA was extracted from fecal pellets and csgA expression quantified by qRT-PCR, relative to rrsA. FIG. 1C is a graph showing fold-change in csgA expression. Motor function was assessed at 15-16 weeks of age by quantifying beam traversal time (FIG. 1D), pole descent time (FIG. 1E), nasal adhesive removal time (FIG. 1F), hindlimb clasping score (FIG. 1G), and wire hang tests (FIG. 1H). Time to cross, time to descent, time to remove, and hindlimb score were lower in the EGCG-treated mice, while time to fall was higher in the EGCG-treated mice compared to vehicle treated control.
Inhibition of functional amyloid formation was studied. Germ-free Thy1-αSyn mice (ASO) were monocolonized with wild-type E. coli and treated with water alone (Vehicle, Veh) or given EGCG ad lib in drinking water (+EGCG). Motor function was assessed at 10, 12, and 15 weeks of age by quantifying beam traversal time (FIG. 5A), pole descent time (FIG. 5B), nasal adhesive removal time (FIG. 5C), hindlimb clasping score (FIG. 5D), and wire hang tests (FIG. 5E). FIG. 5F depicts principal component analysis of compiled motor scores from FIGS. 5A-D. Thin sections of brain were stained for Iba1 (microglia) and morphological characteristics quantified of microglia resident in the striatum (FIGS. 5G-H) and substantia nigra (FIGS. 5I-J). N=10-11 (FIGS. 5A-F), n=3 (FIGS. 5G-J) (averaged from 5-7 cells for branching). Bars represent the mean and standard error. Time courses analyzed by two-way ANOVA, with Sidak post-hoc test for between group comparisons indicated above individual time points, and brackets indicating significance between treatments. Data in (FIGS. 5G-J) analyzed by two-tailed t-test. *p≤0.05; **p≤0.01; ****p≤0.0001.

[3] = tested on: αSyn aggregates in brain of Thy1-αSyn mice (ASO); experiment: Brain αSyn aggregates in germ-free ASO mice mono-colonized with WT E. coli, EGCG in drinking water; assay type: in vivo, mouse; details: EGCG-treated vs vehicle
Procedure: as §1, with “control. […]” for “control.”
FIGS. 1L-M show quantification of insoluble αSyn fibrils in the striatum (FIG. 1L) and ventral midbrain (FIG. 1M) by dot blot assay. Thin sections of brain were stained for Iba1 (microglia), 3D cellular reconstructions generated, and morphological characteristics quantified from microglia resident in the striatum (FIG. 1N) and substantia and nigra (FIG. 1O). n=3 (FIGS. 1A, 1B, 1N, 1O), n=8 (FIG. 1C), n=10-11 (FIGS. 1D-I), n=4 (FIGS. 1L-M). […] Data analyzed by one-way ANOVA with Tukey post-hoc test for FIG. 1A, two-tailed Mann-Whitney for FIGs. […]

For O=C(O[C@@H]1Cc2c(O)cc(O)cc2O[C@@H]1c1cc(O)c(O)c(O)c1)c1cc(O)c(O)c(O)c1 [EGCG, epigallocatechin gallate], the inhibition at 50 µM ([1]; read-out: Inhibition of Aggregation αSyn) was 99%, the inhibition at 50 µM ([1]; read-out: Inhibition of Aggregation αSyn (compound activity range)) was over 60% and the “progressive motor deficits exacerbated by E. coli (motor performance)” value [2] was “successfully dampens progressive motor deficits”. For the same compound, the “beam traversal time (time to cross)” value ([2]; 15-16 weeks of age) was “lower”, the hindlimb clasping score ([2]; 15-16 weeks of age) was “lower” and the “nasal adhesive removal time (time to remove)” value ([2]; 15-16 weeks of age) was “lower”. The “pole descent time (time to descent)” value ([2]; 15-16 weeks of age) was “lower”, the “wire hang test (time to fall)” value ([2]; 15-16 weeks of age) was “higher” and the “αSyn aggregation in striatum and midbrain” value [3] was “preventing αSyn aggregation in both the striatum and midbrain”. For the same compound, the “Proteinase K resistant αSyn aggregates in the substantia nigra” value ([3]; immunofluorescence microscopy) was “lower; also recorded: Fewer”.
